Reference: PubChem BioAssay AID248 (DTP/NCI, 2004)
Values joined by “and” are separate entries in the source; they are usually repeats but may differ in a detail not shown here. Equal entries are not always repeated. Toxic doses and inconclusive results are not listed. No stated cut-off is given here; in the data, active means T/C of 150% or more; inactive means T/C below 125%.

Test system: L1210 leukemia ip in BDF1 mice, survival T/C
Test: NCI In Vivo Anticancer Drug Screen. Data for tumor model L1210 Leukemia (intraperitoneal) in B6D2F1 (BDF1) mice
Conditions: endpoint: mean survival time, higher = longer survival
How it was run: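 Survival endpoint. Drug-treated group vs vehicle group, expressed as T divided by C. Tumor passaged by transplantation.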

[1] = dose: 100.0 mg/kg/injection, schedule: Q04DX002 (ip), vehicle: saline
[2] = dose: 200.0 mg/kg/injection, schedule: Q04DX002 (ip), vehicle: saline
[3] = dose: 400.0 mg/kg/injection, schedule: Q04DX002 (ip), vehicle: saline
[4] = dose: 100.0 mg/kg/injection, schedule: Q01DX009 (ip), vehicle: Klucel (hydroxypropylcellulose) (HPC)
[5] = dose: 100.0 mg/kg/injection, schedule: Q04DX002 (ip), vehicle: Klucel (hydroxypropylcellulose) (HPC)
[6] = dose: 100.0 mg/kg/injection, schedule: Q04DX003 (ip), vehicle: Klucel (hydroxypropylcellulose) (HPC)
[7] = dose: 200.0 mg/kg/injection, schedule: Q04DX002 (ip), vehicle: Klucel (hydroxypropylcellulose) (HPC)
[8] = dose: 200.0 mg/kg/injection, schedule: Q04DX003 (ip), vehicle: Klucel (hydroxypropylcellulose) (HPC)
[9] = dose: 400.0 mg/kg/injection, schedule: Q04DX002 (ip), vehicle: Klucel (hydroxypropylcellulose) (HPC)
[10] = dose: 100.0 mg/kg/injection, schedule: Q01DX009 (ip), vehicle: saline with Tween-80

Measured: T/C

Nc1nc(N)c2nc(CN(CCO)c3ccc(C(=O)NC(CCC(=O)O)C(=O)O)cc3)cnc2n1 (stereo not given)
active: dose: 1.0 mg/kg/injection, schedule: Q01DX009 (ip), vehicle: sodium bicarbonate 151 % of control | dose: 2.0 mg/kg/injection, schedule: Q01DX009 (ip), vehicle: Klucel (hydroxypropylcellulose) (HPC) 174 % of control | dose: 2.0 mg/kg/injection, schedule: Q01DX009 (ip), vehicle: sodium bicarbonate 172 % of control | dose: 4.0 mg/kg/injection, schedule: Q01DX009 (ip), vehicle: Klucel (hydroxypropylcellulose) (HPC) 160 % of control | dose: 4.0 mg/kg/injection, schedule: Q01DX009 (ip), vehicle: sodium bicarbonate 178 % of control | dose: 8.0 mg/kg/injection, schedule: Q01DX009 (ip), vehicle: Klucel (hydroxypropylcellulose) (HPC) 151 % of control
inactive: dose: 8.0 mg/kg/injection, schedule: Q01DX009 (ip), vehicle: sodium bicarbonate 113 % of control | dose: 16.0 mg/kg/injection, schedule: Q01DX009 (ip), vehicle: Klucel (hydroxypropylcellulose) (HPC) 108 % of control | dose: 16.0 mg/kg/injection, schedule: Q01DX009 (ip), vehicle: sodium bicarbonate 89 % of control | dose: 32.0 mg/kg/injection, schedule: Q01DX009 (ip), vehicle: Klucel (hydroxypropylcellulose) (HPC) 96 % of control

Nc1nc(N)c2nc(NCc3ccc(C(=O)NC(CCC(=O)O)C(=O)O)cc3)cnc2n1 (stereo not given)
inactive: dose: 100.0 mg/kg/injection, schedule: Q01DX001 (ip), vehicle: saline 100 % of control | dose: 100.0 mg/kg/injection, schedule: Q01DX009 (ip), vehicle: saline 117 % of control | [1] 103 % of control and 105 % of control | dose: 200.0 mg/kg/injection, schedule: Q01DX001 (ip), vehicle: saline 105 % of control | dose: 200.0 mg/kg/injection, schedule: Q01DX009 (ip), vehicle: saline 117 % of control | [2] 103 % of control and 107 % of control | dose: 400.0 mg/kg/injection, schedule: Q01DX001 (ip), vehicle: saline 96 % of control | [3] 107 % of control and 113 % of control

O=C(Nc1cccc(C(F)(F)F)c1)Nc1ccc(Cl)cc1Cl
inactive: dose: 100.0 mg/kg/injection, schedule: Q01DX001 (ip), vehicle: Klucel (hydroxypropylcellulose) (HPC) 96 % of control | [4] 95 % of control and 108 % of control | [5] 95 % of control and 100 % of control | [6] 86 % of control | dose: 200.0 mg/kg/injection, schedule: Q01DX001 (ip), vehicle: Klucel (hydroxypropylcellulose) (HPC) 91 % of control | dose: 200.0 mg/kg/injection, schedule: Q01DX009 (ip), vehicle: Klucel (hydroxypropylcellulose) (HPC) 94 % of control and 104 % of control | [7] 100 % of control and 88 % of control | [8] 94 % of control | dose: 400.0 mg/kg/injection, schedule: Q01DX001 (ip), vehicle: Klucel (hydroxypropylcellulose) (HPC) 93 % of control | dose: 400.0 mg/kg/injection, schedule: Q01DX009 (ip), vehicle: Klucel (hydroxypropylcellulose) (HPC) 95 % of control and 97 % of control | [9] 98 % of control and 104 % of control | dose: 400.0 mg/kg/injection, schedule: Q04DX003 (ip), vehicle: Klucel (hydroxypropylcellulose) (HPC) 92 % of control

CCC1([N+](=O)[O-])COCOC1
inactive: dose: 6.25 mg/kg/injection, schedule: Q04DX003 (ip), vehicle: Klucel (hydroxypropylcellulose) (HPC) 96 % of control | dose: 12.5 mg/kg/injection, schedule: Q04DX003 (ip), vehicle: Klucel (hydroxypropylcellulose) (HPC) 111 % of control | dose: 25.0 mg/kg/injection, schedule: Q04DX003 (ip), vehicle: Klucel (hydroxypropylcellulose) (HPC) 96 % of control and 111 % of control

CC(=O)NC/C(C)=N/Nc1ccc([N+](=O)[O-])cc1[N+](=O)[O-]
inactive: dose: 25.0 mg/kg/injection, schedule: Q01DX009 (ip), vehicle: saline with Tween-80 91 % of control | dose: 50.0 mg/kg/injection, schedule: Q01DX009 (ip), vehicle: saline with Tween-80 93 % of control | [10] 102 % of control | dose: 100.0 mg/kg/injection, schedule: Q04DX003 (ip), vehicle: saline with Tween-80 88 % of control

O=C(O)c1ccc(OCc2ccccc2)c(Br)c1
inactive: dose: 100.0 mg/kg/injection, schedule: Q01DX001 (ip), vehicle: saline with Tween-80 97 % of control | dose: 200.0 mg/kg/injection, schedule: Q01DX001 (ip), vehicle: saline with Tween-80 104 % of control | dose: 400.0 mg/kg/injection, schedule: Q01DX001 (ip), vehicle: saline with Tween-80 98 % of control

C=C1C(=O)OC2CC(C)C3CC(O)OC(O)C3(C)CC12 (stereo not given)
inactive: dose: 0.39 mg/kg/injection, schedule: Q01DX005 (ip), vehicle: water 108 % of control | dose: 0.78 mg/kg/injection, schedule: Q01DX005 (ip), vehicle: water 108 % of control | dose: 1.56 mg/kg/injection, schedule: Q01DX005 (ip), vehicle: water 106 % of control | dose: 3.13 mg/kg/injection, schedule: Q01DX005 (ip), vehicle: water 106 % of control | dose: 6.25 mg/kg/injection, schedule: Q01DX005 (ip), vehicle: water 104 % of control

O=C(/C=C/c1cccc([N+](=O)[O-])c1)Nc1cccc(S(=O)(=O)F)c1
inactive: [10] 89 % of control | dose: 200.0 mg/kg/injection, schedule: Q01DX009 (ip), vehicle: saline with Tween-80 96 % of control | dose: 400.0 mg/kg/injection, schedule: Q01DX009 (ip), vehicle: saline with Tween-80 97 % of control

CCCCCCCN(CCCCCCC)CC(O)c1cc2ccc(Cl)cc2c2cccnc12 (stereo not given)
inactive: dose: 50.0 mg/kg/injection, schedule: Q01DX009 (ip), vehicle: Klucel (hydroxypropylcellulose) (HPC) 98 % of control | [4] 96 % of control | [6] 102 % of control | [8] 104 % of control

O=C(CCCCC(=O)Nc1ccc(C(=O)Nc2cc(C3=NCCN3)cc(C3=NCCN3)c2)cc1)Nc1ccc(C(=O)Nc2cc(C3=NCCN3)cc(C3=NCCN3)c2)cc1
inactive: dose: 35.0 mg/kg/injection, schedule: Q01DX Z (ip), vehicle: saline 102 % of control | dose: 55.0 mg/kg/injection, schedule: Q01DX Z (ip), vehicle: saline 103 % of control

C=C(C)C(=O)OC (tested in a mixture with another compound)
inactive: dose: 50.0 mg/kg/injection, schedule: Q04DX002 (ip), vehicle: Klucel (hydroxypropylcellulose) (HPC) 107 % of control | dose: 75.0 mg/kg/injection, schedule: Q01DX001 (ip), vehicle: other 96 % of control | [5] 101 % of control | dose: 150.0 mg/kg/injection, schedule: Q01DX001 (ip), vehicle: other 94 % of control | [7] 93 % of control | dose: 300.0 mg/kg/injection, schedule: Q01DX001 (ip), vehicle: other 91 % of control | [9] 90 % of control

CN(N=O)C(=O)NC(N)=O
inactive: dose: 1.5 mg/kg/injection, schedule: Q01DX009 (ip), vehicle: saline 110 % of control | dose: 1.87 mg/kg/injection, schedule: Q01DX Z (ip), vehicle: carboxymethylcellulose (CMC) 115 % of control | dose: 30.0 mg/kg/injection, schedule: Q01DX Z (ip), vehicle: carboxymethylcellulose (CMC) 110 % of control | dose: 40.0 mg/kg/injection, schedule: Q01DX Z (ip), vehicle: carboxymethylcellulose (CMC) 91 % of control | dose: 50.0 mg/kg/injection, schedule: Q01DX Z (ip), vehicle: saline 122 % of control | dose: 75.0 mg/kg/injection, schedule: Q01DX Z (ip), vehicle: saline 112 % of control | dose: 100.0 mg/kg/injection, schedule: Q01DX Z (ip), vehicle: saline 92 % of control
active: dose: 10.0 mg/kg/injection, schedule: Q01DX Z (ip), vehicle: carboxymethylcellulose (CMC) 188 % of control | dose: 15.0 mg/kg/injection, schedule: Q01DX Z (ip), vehicle: carboxymethylcellulose (CMC) 177 % of control

Cc1cc(N(C)C)c(C(C)C)cc1O (tested in a mixture with another compound)
inactive: dose: 3.2 micrograms/kg/injection, schedule: Q01DX009 (ip), vehicle: saline 95 % of control | dose: 6.3 micrograms/kg/injection, schedule: Q01DX009 (ip), vehicle: saline 90 % of control | dose: 12.5 micrograms/kg/injection, schedule: Q01DX009 (ip), vehicle: saline 105 % of control

NC(CCS)C(=O)O (stereo not given)
inactive: [1] 107 % of control | [2] 110 % of control | [3] 96 % of control

O=C1CCCCc2ccc([N+](=O)[O-])cc21
inactive: dose: 50.0 mg/kg/injection, schedule: Q01DX001 (ip), vehicle: other 86 % of control | dose: 100.0 mg/kg/injection, schedule: Q01DX001 (ip), vehicle: other 98 % of control | dose: 200.0 mg/kg/injection, schedule: Q01DX001 (ip), vehicle: other 96 % of control | dose: 400.0 mg/kg/injection, schedule: Q01DX001 (ip), vehicle: other 88 % of control
